Measured values reported in patent US8304410B2, “Pyrrole compounds as inhibitors of mycobacteria, synthesis thereof and intermediates thereto” (priority 2007, dated 2012).
Values after ≈ are worked out from the molar mass of the structure shown.

Legend:
Type in all cases: cell-based
[1] = system: M. tuberculosis INH-R; assay: microbe, parasite or virus in culture; settings: for MIC: Mycobacterium tuberculosis, read-out: M. tuberculosis INH-R MIC; for M. tuberculosis INH-R MIC: isoniazid-resistant mycobacteria
[2] = system: M. tuberculosis RMP-R; assay: microbe, parasite or virus in culture; settings: for MIC: Mycobacterium tuberculosis, read-out: M. tuberculosis RMP-R (Rif-R) MIC; for M. tuberculosis RMP-R (Rif-R) MIC: rifampicin-resistant mycobacteria
[3] = system: M. tuberculosis PZA-R; settings: pirazinamide-resistant mycobacteria
[4] = system: M. tuberculosis SM-R; settings: streptomycin-resistant mycobacteria

Row | Compound | MIC [1] [µg/mL] | M. tuberculosis INH-R MIC [1] [µg/mL] | MIC [2] [µg/mL] | M. tuberculosis RMP-R (Rif-R) MIC [2] [µg/mL] | PZA-R MIC [3] [µg/mL] | SM-R MIC [4] [µg/mL]
1 | CSc1ccc(-c2cc(CN3CCSCC3)c(C)n2-c2ccc(F)cc2)cc1 [Compound 3a, N-(4-fluorophenyl)-2-methyl-3-thiomorpholinomethyl-5-(4-methylsulfanylphenyl)pyrrole] | > 16 | >16 | 0.25 (≈ 0.606 µM) | – | – | –
2 | CSc1ccc(-c2cc(CN3CCSCC3)c(C)n2-c2ccc(C)cc2)cc1 [Compound 3b] | – | 16 | – | 0.25 | 0.5 | 0.25
3 | CCc1ccc(-n2c(-c3ccc(SC)cc3)cc(CN3CCSCC3)c2C)cc1 [Compound 3c] | – | 16 | – | 0.25 | 0.25 | 0.25
4 | CCCc1ccc(-n2c(-c3ccc(SC)cc3)cc(CN3CCSCC3)c2C)cc1 [Compound 3d] | – | 8 | – | 0.5 | 0.5 | 0.25
5 | CSc1ccc(-c2cc(CN3CCSCC3)c(C)n2-c2ccc(C(C)C)cc2)cc1 [Compound 3e] | – | 16 | – | 1 | 1 | 0.125
6 | CSc1ccc(-c2cc(CN3CCN(C)CC3)c(C)n2-c2ccc(F)cc2)cc1 [Compound 3f] | – | 8 | – | 2 | 2 | 1
7 | CSc1ccc(-c2cc(CN3CCOCC3)c(C)n2-c2ccc(F)cc2)cc1 [Compound 3h] | – | >16 | – | 2 | 0.5 | 0.25
8 | NNC(=O)c1ccncc1 [Isoniazid, INH, Isoniazid, reference compound] | > 64 | – | 0.25 (≈ 1.82 µM) | – | – | –
9 | CO[C@H]1/C=C/O[C@@]2(C)Oc3c(C)c(O)c4c(O)c(c(/C=N/N5CCN(C)CC5)c(O)c4c3C2=O)NC(=O)/C(C)=C\C=C\[C@H](C)[C@H](O)[C@@H](C)[C@@H](O)[C@@H](C)[C@H](OC(C)=O)[C@@H]1C [Rifampicin, RIF, Rifampicin] | 0.8 (≈ 0.972 µM) | – | > 64 | – | – | –
10 | [H]/N=C(/N)N[C@H]1[C@H](O)[C@@H](O)[C@H](O[C@@H]2O[C@@H](C)[C@](O)(C=O)[C@H]2O[C@@H]2O[C@@H](CO)[C@H](O)[C@@H](O)[C@@H]2NC)[C@@H](N/C(N)=N\[H])[C@@H]1O [Streptomycin, SM, Streptomycin, reference compound] | 0.5 (≈ 0.86 µM) | – | 0.5 (≈ 0.86 µM) | – | – | –
